{"source": "patent US20220331348A1", "about": "“METHOD OF PREPARING PENTACYCLIC TRITERPENOID SAPONINS AND DRUG COMPOSITION” (CHINA PHARMACEUTICAL UNIVERSITY, priority 2019, published 2022)", "key": {"AMPK in Huh-7 cells": {"tested_on": "AMPK in Huh-7 cells", "assay": "Activation activity on AMPK in Huh-7 cells (Western Blot)", "assay_type": "cell-based", "details": "12 h, relative to DMSO = 1", "experimental": "The activation activity of a compound on AMPK in Huh-7 cells was detected by using Western Blot.\nCell culture conditions: Huh-7 cells were cultured in an incubator with 5% CO2 at 37° C. in DMEM complete medium (containing 10% fetal calf serum and 1% streptomycin/penicillin).\nAntibody: anti-AMPK (CST, 2532S); anti-pAMPK (CST, 2535S).\nWestern Blot experiment: the influence of the compound on phosphorylation level of the AMPK in the Huh-7 cells was detected: cells with more than 90% cells alive were taken for the experiment. In a 12-well plate, the Huh-7 cells were plated in the plate at 250000 cells per well, the plate was placed in the incubator with 5% CO2 at 37° C. for culture, an original culture medium was discarded after 12 h, a complete medium containing the pentacyclic triterpenoid saponin was added, a final concentration of subject pentacyclic triterpenoid saponin was set to be 10 μM, and an administration time was set to be 12 h. A positive control compound employs AICAR (100 μM), metformin (70 μM) or A-769662 (100 μM). Then proteins were extracted for Western Blot detection.\nExperimental result: a Western Blot experimental result was subjected to gray scale scanning, a p-AMPK/AMPK ratio of negative control DMSO was defined as 1, and a p-AMPK/AMPK ratio of the subject compound was a relative ratio of a negative control group. The larger the numerical value was, the stronger the activation activity of the AMPK of the compound was."}, "[1]": {"tested_on": "ulcerative colitis model mice induced by DSS", "assay": "Dextran sulphate sodium salt (DSS) induced ulcerative colitis model mice", "assay_type": "in vivo, mouse", "details": "DSS-induced mice; dose not given; vs model group", "experimental": "C57BL/6 male mice with 6-8 weeks old were selected; a control group was fed with purified water; and a model group, a treatment group and a positive control group were fed with purified water containing 2% dextran sulphate sodium salt (DSS) (36000-50000 M.Wt) for 7 days and then with the purified water for 3 days, and drug intervention was conducted at the same time. The mice in the control group and the model group were orally administered with carboxymethyl cellulose sodium as a placebo, the mice in the treatment group were orally administered with the ziyuglycoside II (purchased from Shanghai Boka Chemistry Technology Co., Ltd) (with a dosage of 5 mg/kg), and the mice in the positive control group were orally administered with 5-aminosalicylic acid as a clinical drug (5-ASA, purchased from Shanghai Sangon Biological Engineering Co., Ltd) (with a dosage of 100 mg/kg). In the administration process, weight changes, feces characters and hematochezia conditions of the mice were observed and recorded every day and were scored, and disease activity indexes were calculated (Disease activity index, DAI).\nA scoring rule and a calculation method were as follows: DAT=(weight score+diarrhea score+occult blood score)/3, wherein weight score: 0 (weight gained or unchanged), 1 (weight lost by 1-5%), 2 (weight lost by 6-10%), 3 (weight lost by 11-15%), 4 (weight lost by 15% or above); diarrhea score: 0 (normal feces), 2 (soft feces), 4 (feces sticking anuses or diarrhea); and occult blood score: 0 (negative occult blood), 2 (positive occult blood), and 4 (visible bleeding). Comparing differences in DAI of various groups, it can be known that the ziyuglycoside II has significant prevention and treatment effects on ulcerative colitis of the mice modeled by the dextran sulphate sodium salt (DSS).\nThe above mice were sacrificed by cervical dislocation at day 11, colon tissues were harvested, lengths of the colon tissues were measured for statistical summary, and differences in colon length of various groups were compared, from which, the ziyuglycoside II has significant prevention and treatment effect on the ulcerative colitis model mice.\nMiddle segments, with lengths of about 1 cm, of the colon tissues of the above mice were selected, soaked in a formalin solution for fixing overnight, embedded with paraffin and sliced, and the slices were subjected to HE staining. […] Particularly, compared with the positive drug group, the ziyuglycoside II has the advantage of maintaining a thickness of a muscular layer.\n10 mg of proximal rectum segments of the colon tissues of the above mice were selected, PBS was added for homogenization, and centrifugation was conducted for taking a supernate. The supernate was subjected to ELISA detection, and protein quantification was conducted for inflammatory factors TNF-α and IL-lb.\n10 mg of colon tissues of the above mice were selected for detection of ROS therein.\nWhen the ulcerative colitis occurs, the inflammatory factors may destruct tight junction between intestinal tracts, and destruction of the tight junction enables functions of mucosal barriers to be lost and accelerates development of the diseases. 5 mg of colon tissues of the above mice were selected for qPCR analysis. […] This hints that the ziyuglycoside II further has the efficacy of increasing the expression level of the tight junction and then protecting a structure of each colon. […] Therefore, the ziyuglycoside II is expected to be useful for preparing the drug for preventing or treating the inflammatory bowel diseases such as the ulcerative colitis."}, "[2]": {"tested_on": "TNBS modeled Crohn's disease model mice", "assay": "2,4,6-trinitrobenzene sulfonic acid (TNBS) modeled Crohn's disease model mice", "assay_type": "in vivo, mouse", "details": "dose not given", "experimental": "C57BL/6 male mice with 6-8 weeks old were selected and randomly divided into a control group, a mode group, a treatment group and a positive control group. Expect for the control group, after the mice in the rest groups anesthetized with isoflurane, hoses were carefully inserted into colons of the mice from anuses, and […] of 1.5% 2,4,6-trinitrobenzene sulfonic acid (TNBS) was slowly injected. Before the hoses were pulled out, the mice were placed upside down for 1 min. First intragastric administration was conducted at the day of enema treatment, the mice in the control group and the model group were orally administered with carboxymethyl cellulose sodium as a placebo, the mice in the treatment group were orally administered with the ziyuglycoside II (purchased from Shanghai Boka Chemistry Technology Co., Ltd) (with a dosage of 5 mg/kg), and the mice in the positive drug group were orally administered with 5-aminosalicylic acid as a clinical drug (5-ASA, purchased from Shanghai Sangon Biological Engineering Co., Ltd) (with a dosage of 100 mg/kg). Administration was continuously conducted for 7 days. In the administration process, the states of the mice were observed every day, and weight changes of the mice were recorded.\nDifferences in weight change of the mice in various groups were compared, from which, ziyuglycoside II has the treatment effect on the 2, 4, 6-trinitrobenzene sulfonic acid (TNBS) modeled Crohn's disease model mice.\nThe above mice were sacrificed by cervical dislocation at day 8, colon tissues were harvested, lengths of the colon tissues were measured for statistical summary, and differences in colon length of various groups were compared, from which, the ziyuglycoside II has significant treatment effect on the Crohn's disease model mice. […] 10 mg of proximal rectum segments of the colon tissues of the above mice were selected, PBS was added for homogenization, and centrifugation was conducted for taking a supernate. The supernate was subjected to ELISA detection, and protein quantification was conducted for inflammatory factors TNF- and IL-1. […] Myeloperoxidase (MPO) is an enzyme specific to neutrophils, and the amount of the neutrophils in the intestinal tracts may be reflected by detecting the MPO level. 5 mg of proximal rectum segments of the colon tissues of the above mice were selected, PBS was added for homogenization, and the content of the MPO in a homogenate was detected with a MPO kit (purchased from Nanjing Jiancheng Bioengineering Institute). […] Therefore, the ziyuglycoside II is expected to be useful for preparing the drug for preventing or treating the inflammatory bowel diseases such as the Crohn's disease."}}}
{"compound": "reinioside C [(IX)]", "values": [{"measurement": "pAMPK/AMPK ratio", "setting": "AMPK in Huh-7 cells; 10 μM, Western Blot gray scale", "value": 1.88}, {"measurement": "DAI scores of the treatment group", "setting": "[1]", "value": "obviously lower than those of the model group"}, {"measurement": "colon length of the treatment group compared with the control group", "setting": "[2]", "value": "nearly no difference"}, {"measurement": "expression level of inflammatory factor IL-1β", "setting": "[2]; vs model group", "value": "significantly lower than those of the model group"}, {"measurement": "expression level of inflammatory factor TNF-α", "setting": "[2]; vs model group", "value": "significantly lower than those of the model group"}]}
{"compound": "CC1(C)CC[C@]2(C(=O)O)CC[C@]3(C)C(=CC[C@@H]4[C@@]5(C)CC[C@H](O[C@@H]6O[C@H](C(=O)O)[C@@H](O)[C@H](O[C@@H]7OC[C@@H](O)[C@H](O)[C@H]7O)[C@H]6O)C(C)(C)[C@@H]5CC[C@]43C)[C@@H]2C1", "note": "[(IV), kochioside Ic]", "values": [{"measurement": "pAMPK/AMPK ratio", "setting": "AMPK in Huh-7 cells; 10 μM, Western Blot gray scale", "value": 1.75}]}
{"compound": "CC1(C)CC[C@]2(C(=O)O)CC[C@]3(C)C(=CC[C@@H]4[C@@]5(C)CC[C@H](O[C@@H]6O[C@H](CO)[C@@H](O)[C@H](O)[C@H]6O)C(C)(C)C5CC[C@]43C)[C@H]2C1", "note": "(stereo partly shown) [(XVI), hederin A2]", "values": [{"measurement": "pAMPK/AMPK ratio", "setting": "AMPK in Huh-7 cells; 10 μM, Western Blot gray scale", "value": 2.05}]}
{"compound": "CN(C)C(=N)N=C(N)N", "note": "[Metformin, reference compound]", "values": [{"measurement": "pAMPK/AMPK ratio", "setting": "AMPK in Huh-7 cells; positive control 70 μM", "value": 1.22}]}
{"compound": "NC(=O)c1ncn([C@@H]2O[C@H](CO)[C@@H](O)[C@H]2O)c1N", "note": "[AICAR, reference compound]", "values": [{"measurement": "pAMPK/AMPK ratio", "setting": "AMPK in Huh-7 cells; positive control 100 μM", "value": 1.47}]}
{"compound": "N#Cc1c(O)c2c(-c3ccc(-c4ccccc4O)cc3)csc2[nH]c1=O", "note": "[Compound A-769662, A-769662, reference compound]", "values": [{"measurement": "pAMPK/AMPK ratio", "setting": "AMPK in Huh-7 cells; positive control 100 μM", "value": 2.59}]}
{"compound": "C[C@@H]1OC(O[C@H]2[C@H](O[C@H]3CC[C@]4(C)[C@H]5CC=C6[C@@H]7CC(C)(C)CC[C@]7(C(=O)O)CC[C@@]6(C)[C@]5(C)CC[C@H]4C3(C)C)OC[C@H](O)[C@@H]2O)[C@H](O)[C@H](O)[C@H]1O", "note": "(stereo partly drawn) [(XV), β-hederin]", "values": [{"measurement": "pAMPK/AMPK ratio", "setting": "AMPK in Huh-7 cells; 10 μM, Western Blot gray scale", "value": 2.87}]}
{"compound": "CC1(C)CC[C@]2(C(=O)O)CC[C@]3(C)C(=CCC4[C@@]5(C)CC[C@H](O[C@@H]6O[C@H](C(=O)O)[C@@H](O)[C@H](O)[C@H]6O)C(C)(C)[C@@H]5CC[C@]43C)[C@@H]2C1", "note": "(stereo partly shown) [(III), calunduloside E]", "values": [{"measurement": "pAMPK/AMPK ratio", "setting": "AMPK in Huh-7 cells; 10 μM, Western Blot gray scale", "value": 1.54}]}
{"compound": "CC1(C)CC[C@]2(C(=O)O)CC[C@]3(C)C(=CCC4[C@@]5(C)CC[C@H](O[C@@H]6OC[C@H](O)[C@H](O)[C@H]6O)C(C)(C)[C@@H]5CC[C@]43C)[C@@H]2C1", "note": "(stereo partly shown) [(XIV), asperosaponin C]", "values": [{"measurement": "pAMPK/AMPK ratio", "setting": "AMPK in Huh-7 cells; 10 μM, Western Blot gray scale", "value": 2.23}]}
